From PubChem BioAssay (NCI)
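Assay format: 96-well plates, 48-hour exposure. Definition used: TGI = concentration required for complete inhibition of growth.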

Legend:
Assay in all cases: growth of human tumour cells (NCI), 48 h
HOP-62 NSCLC = system: HOP-62 NSCLC
HOP-92 NSCLC = system: HOP-92 NSCLC
OVCAR-3 ovarian = system: OVCAR-3 ovarian
NCI-H460 lung = system: NCI-H460 lung
CAKI-1 renal = system: CAKI-1 renal
A549 NSCLC = system: A549 NSCLC
UO-31 renal = system: UO-31 renal
NCI/ADR-RES ovarian = system: NCI/ADR-RES ovarian
UACC-257 melanoma = system: UACC-257 melanoma
EKVX NSCLC = system: EKVX NSCLC

Structure (SMILES) | TGI (HOP-62 NSCLC) [µM] | TGI (HOP-92 NSCLC) [µM] | TGI (OVCAR-3 ovarian) [µM] | TGI (NCI-H460 lung) [µM] | TGI (CAKI-1 renal) [µM] | TGI (A549 NSCLC) [µM] | TGI (UO-31 renal) [µM] | TGI (NCI/ADR-RES ovarian) [µM] | TGI (UACC-257 melanoma) [µM] | TGI (EKVX NSCLC) [µM]
O=C(Oc1cc(=O)c(OC(=O)c2ccccc2)co1)c1ccccc1 | > 100 | > 100 | > 100 | > 100 | > 100 | > 100 | > 100 | > 100 | > 100 | –
CC1CN=C(N(C(=O)Nc2ccc(F)c(Cl)c2)c2ccccc2)S1 (stereo not drawn) | 61.6 | 48.1 | > 100 | 84.1 | 67 | 92.1 | 98.1 | 43 | 58.7 | 62.4
Cc1ccc(CC[P+](=O)CCc2ccc(C)nc2)cn1 | > 100 | > 100 | > 100 | > 100 | > 100 | – | – | > 100 | > 100 | > 100
COc1ccc(-c2c3c([nH]c(=S)c2C#N)CC(C)(C)CC3=O)cc1 | > 100 | > 100 | > 100 | > 100 | > 100 | > 100 | > 100 | – | > 100 | > 100
C=C1c2cc3c(cc2CC12Cc1cc4c(cc1C2=O)CCC4)CCC3 (stereo not drawn) | > 100 | > 100 | > 100 | > 100 | > 100 | > 100 | > 100 | > 100 | > 100 | > 100
COc1ccc(-c2oc(/C=N/NC(N)=S)c([N+](=O)[O-])c2-c2ccc(OC)c(OC)c2)cc1OC | > 100 | 79 | 47.9 | – | > 100 | > 100 | – | – | > 100 | 80.4
CNc1ncnc2c1cnn2COCC(O)CO (stereo not drawn) | > 100 | > 100 | > 100 | > 100 | > 100 | > 100 | > 100 | > 100 | > 100 | > 100
CCOC(=O)c1nc2ccc(C(F)(F)F)cc2nc1Oc1ccc(C#N)cc1 | 28.9 | 47.2 | – | > 100 | 59.1 | – | > 100 | 48.9 | 65.8 | 30.2
CCC1=CC2CN3Cn4c(c(COCc5c6n(c7ccccc57)CN5CC7C=C(CC)C5C6(C(=O)OC)C7)c5ccccc54)C(C(=O)OC)(C2)C13 | > 100 | – | > 100 | > 100 | > 100 | > 100 | > 100 | – | > 100 | > 100
O=C(Nc1ccccc1F)c1cc2ccc(O)cc2oc1=Nc1ccccc1F | 4.31 | – | 3.83 | 6.18 | 4.46 | 5.89 | 3.56 | 5.93 | 10.1 | 6.01
O=C(NCCCN(CCCCN(CCCNC(=O)C(F)(F)F)Cc1ccc2ccccc2c1)Cc1ccc2ccccc2c1)C(F)(F)F | > 100 | > 100 | > 100 | 23.7 | – | > 100 | > 100 | > 100 | 4.58 | > 100
Cc1cn([C@@H]2C[C@H](CO)[C@@H](O)C2)c(=O)[nH]c1=O | > 100 | > 100 | > 100 | > 100 | – | > 100 | > 100 | – | > 100 | > 100
CC(C)(C)OC(=O)NCCC(N)=S | > 100 | > 100 | > 100 | > 100 | – | > 100 | > 100 | > 100 | > 100 | > 100
N#CCc1nc(-c2ccccc2)n[nH]1 | > 100 | – | > 100 | > 100 | > 100 | > 100 | > 100 | > 100 | > 100 | > 100
COc1c(O)c2c3c(c(C)cc(O)c3c1O)C(=O)C(O)(C(C)(C)C(C)=O)C2=O (stereo not drawn) | > 100 | > 100 | > 100 | > 100 | > 100 | > 100 | > 100 | – | > 100 | –
CC1(C)C2CC(=O)C1(C)C(O)C2Br (stereo not drawn) | > 100 | > 100 | > 100 | > 100 | – | > 100 | > 100 | > 100 | – | > 100
O=C(O)c1cc(-c2ccc3c(O)c(O)ccc3c2)ccc1O | > 75 | – | > 75 | > 7.5 | 25.6 | > 75 | > 75 | > 75 | > 75 | > 75
CC(=O)c1cccn1/C=C(\OC(=O)OC(C)(C)C)c1ccc[nH]1 | > 100 | – | > 100 | > 100 | 91.2 | > 100 | > 100 | > 100 | > 100 | > 100
O=C1Sc2ccccc2C(=O)N2CSCC12 (stereo not drawn) | > 100 | > 100 | > 100 | > 100 | – | > 100 | > 100 | – | > 100 | > 100
CCN(CC)CCCNC(=O)c1ccc([N+](=O)[O-])cc1O | > 100 | > 100 | > 100 | > 100 | > 100 | > 100 | > 100 | – | > 100 | > 100
S=C(/N=c1\sc(Nc2ccc(Cl)cc2)nc2sc3c(c12)CCN(N1CCc2c(sc4nc(Nc5ccc(Cl)cc5)s/c(=N\C(=S)Nc5ccc(Cl)cc5)c24)C1)C3)Nc1ccc(Cl)cc1 | > 100 | – | > 100 | > 100 | – | > 100 | > 100 | > 100 | > 100 | > 100
NC(CC1=CS(=O)(=O)c2ccc(Cl)cc21)C(=O)O (stereo not drawn) | > 100 | > 100 | > 100 | > 100 | > 100 | > 100 | – | > 100 | > 100 | > 100
CCOC(=O)C1(C(=O)OCC)COS(=O)OC1 | – | 28.6 | 42.1 | > 100 | – | > 100 | > 100 | > 100 | > 100 | –
